Measurements taken from paper PMC5612656, “In vitro and in vivo effects of 2,4 diaminoquinazoline inhibitors of the decapping scavenger enzyme DcpS: Context-specific modulation of SMN transcript levels” (PLoS ONE, 2017).

Tested on: spinal cord transcriptome
Assay: RNA-Seq of spinal cord tissue from 2B/- and 2B/+ mice
Format: in vivo, mouse
Settings: 2B-Veh vs 2B-RG3039

Nc1nc(N)c2c(OCC3CCN(Cc4c(Cl)cccc4Cl)CC3)cccc2n1 [RG3039]
log2(fold-change) Slc16a3: -0.7903 | log2(fold-change) Slc16a9: -0.6931 | log2(fold-change) Slc24a4: -0.7011 | log2(fold-change) Slc25a34: -1.809 | log2(fold-change) Slc38a5: 1.057 | log2(fold-change) Slc43a2: -0.4622 | log2(fold-change) Smim3: -1.398 | log2(fold-change) Sox7: 0.9813 | log2(fold-change) Sspo: -0.7538 | log2(fold-change) Steap3: 0.5769 | log2(fold-change) Sult1a1: -1.637 | log2(fold-change) T2: -0.674 | log2(fold-change) Thbd: 0.6475 | log2(fold-change) Tjap1: -0.5932 | log2(fold-change) Tmem52: -2.209 | log2(fold-change) Tmem82: -2.075 | log2(fold-change) Tnc: 1.175 | log2(fold-change) Tnfrsf11b: 0.7466 | log2(fold-change) Tnfsf10: 1.316 | log2(fold-change) Top2a: 0.5734 | log2(fold-change) Trim17: -0.4978 | log2(fold-change) Trim63: -1.544 | log2(fold-change) Txnip: -1.514 | log2(fold-change) Ube2c: 0.4464 | log2(fold-change) Uhrf1: 0.8234 | log2(fold-change) Vegfc: 0.6909 | log2(fold-change) Wfdc18: -1.041 | log2(fold-change) Wnt7a: 1.48 | log2(fold-change) Zbtb16: -1.136 | log2(fold-change) Zfand4: -0.6603 | log2(fold-change) (gene 1110032A03Rik): -0.2821 | log2(fold-change) (gene Acsbg1): -0.2673 | log2(fold-change) (gene Adam15): -0.3484 | log2(fold-change) (gene Adi1): -0.4121 | log2(fold-change) (gene Adra1b): 0.2729 | log2(fold-change) (gene Aff1): -0.2665 | log2(fold-change) (gene Ak3): -0.3763 | log2(fold-change) (gene Aldh1l1): -0.3854 | log2(fold-change) (gene Aldoc): -0.3499 | log2(fold-change) (gene Amz1): 0.2752 | log2(fold-change) (gene Ap5z1): -0.356 | log2(fold-change) (gene Aqp11): -0.2575 | log2(fold-change) (gene Arsk): -0.2986 | log2(fold-change) (gene B3gnt9): -0.2654 | log2(fold-change) (gene Bahd1): 0.2771 | log2(fold-change) (gene Boc): -0.2865 | log2(fold-change) (gene Calr): 0.1683 | log2(fold-change) (gene Ccdc41os1): -0.2491 | log2(fold-change) (gene Ccdc117): 0.2458 | log2(fold-change) (gene Ccnyl1): 0.3378 | log2(fold-change) (gene Cdc25a): 0.2456 | log2(fold-change) (gene Clmp): 0.2336 | log2(fold-change) (gene Cntfr): -0.3422 | log2(fold-change) (gene Col9a3): 0.1971 | log2(fold-change) (gene Cpt1c): -0.278 | log2(fold-change) (gene Crabp1): 0.2782 | log2(fold-change) (gene Cryz): -0.1892 | log2(fold-change) (gene Daam2): -0.2024 | log2(fold-change) (gene Darc): 0.1786 | log2(fold-change) (gene Decr1): -0.3016 | log2(fold-change) (gene Dnm2): -0.2166 | log2(fold-change) (gene Efnb3): -0.3581 | log2(fold-change) (gene Elmo2): 0.364 | log2(fold-change) (gene Eltd1): -0.2627 | log2(fold-change) (gene Fkbp10): 0.3165 | log2(fold-change) (gene Fmnl3): 0.3298 | log2(fold-change) (gene Foxo3): -0.2832 | log2(fold-change) (gene Gpt2): -0.2642 | log2(fold-change) (gene Gstt1): -0.358 | log2(fold-change) (gene Hapln2): -0.2887 | log2(fold-change) (gene Hmgcr): 0.3374 | log2(fold-change) (gene Hopx): 0.2486 | log2(fold-change) (gene Hsdl2): -0.1941 | log2(fold-change) (gene Itfg3): -0.4076 | log2(fold-change) (gene Ivd): -0.3584 | log2(fold-change) (gene Kctd3): -0.3771 | log2(fold-change) (gene Kctd15): 0.2608 | log2(fold-change) (gene Kpna2): 0.269 | log2(fold-change) (gene Lpcat1): 0.2395 | log2(fold-change) (gene Lrrc1): -0.4303 | log2(fold-change) (gene Lxn): 0.285 | log2(fold-change) (gene Maged2): 0.2097 | log2(fold-change) (gene Megf9): -0.283 | log2(fold-change) (gene Megf11): 0.3115 | log2(fold-change) (gene Mmp15): 0.2397 | log2(fold-change) (gene Msi1): 0.3899 | log2(fold-change) (gene Mterfd3): -0.3526 | log2(fold-change) (gene Ngef): 0.3246 | log2(fold-change) (gene Nid1): 0.3048 | log2(fold-change) (gene Npl): 0.2963 | log2(fold-change) (gene Nr2f1): 0.3426 | log2(fold-change) (gene Nrbp2): -0.2827 | log2(fold-change) (gene Nrep): 0.3402
